The results in this text go back to ChEMBL document CHEMBL3351322, “Study the interactions between human serum albumin and two antifungal drugs: fluconazole and its analogue DTP” (Bioorg Med Chem Lett, 2014).

Common to all, as to assay type: ADME
Series [1] addresses T1, Albumin (Homo sapiens, UniProt P02768). As to the kind of experiment: Binding affinity to human serum albumin at 0.4 to 5.6 x 10' -5 M by UV-Vis spectroscopy. The conditions noted are these: isolated protein.
The target in series [2] is T1, Albumin. As to the kind of experiment: Ratio of binding constant for human serum albumin in presence of Zn2+ to binding constant for human serum albumin in absence of metal ions.
Series [3] has as its target T1, Albumin. As to the kind of experiment: Ratio of binding constant for human serum albumin in presence of La3+ to binding constant for human serum albumin in absence of metal ions.
Series [4] deals with T1, Albumin. Briefly: Ratio of binding constant for human serum albumin in presence of Cu2+ to binding constant for human serum albumin in absence of metal ions.
Series [5] addresses T1, Albumin. Briefly: Ratio of binding constant for human serum albumin in presence of Mn2+ to binding constant for human serum albumin in absence of metal ions.
Series [6] concerns the target T1, Albumin. As to the kind of experiment: Ratio of binding constant for human serum albumin in presence of Co2+ to binding constant for human serum albumin in absence of metal ions.
Series [7] has as its target T1, Albumin. As to the kind of experiment: Ratio of binding constant for human serum albumin in presence of Cr3+ to binding constant for human serum albumin in absence of metal ions.
For series [8], the target named is T1, Albumin. Briefly: Ratio of binding constant for human serum albumin in presence of Fe3+ to binding constant for human serum albumin in absence of metal ions.
For series [9], the target named is T1, Albumin. Briefly: Ratio of binding constant for human serum albumin in presence of Mg2+ to binding constant for human serum albumin in absence of metal ions.
For series [10], the target named is T1, Albumin. As to the kind of experiment: Ratio of binding constant for human serum albumin in presence of Ni2+ to binding constant for human serum albumin in absence of metal ions.
Series [11] concerns the target T1, Albumin. As to the kind of experiment: Ratio of binding constant for human serum albumin in presence of Ba2+ to binding constant for human serum albumin in absence of metal ions.

T1 sequence (P02768 whole entry): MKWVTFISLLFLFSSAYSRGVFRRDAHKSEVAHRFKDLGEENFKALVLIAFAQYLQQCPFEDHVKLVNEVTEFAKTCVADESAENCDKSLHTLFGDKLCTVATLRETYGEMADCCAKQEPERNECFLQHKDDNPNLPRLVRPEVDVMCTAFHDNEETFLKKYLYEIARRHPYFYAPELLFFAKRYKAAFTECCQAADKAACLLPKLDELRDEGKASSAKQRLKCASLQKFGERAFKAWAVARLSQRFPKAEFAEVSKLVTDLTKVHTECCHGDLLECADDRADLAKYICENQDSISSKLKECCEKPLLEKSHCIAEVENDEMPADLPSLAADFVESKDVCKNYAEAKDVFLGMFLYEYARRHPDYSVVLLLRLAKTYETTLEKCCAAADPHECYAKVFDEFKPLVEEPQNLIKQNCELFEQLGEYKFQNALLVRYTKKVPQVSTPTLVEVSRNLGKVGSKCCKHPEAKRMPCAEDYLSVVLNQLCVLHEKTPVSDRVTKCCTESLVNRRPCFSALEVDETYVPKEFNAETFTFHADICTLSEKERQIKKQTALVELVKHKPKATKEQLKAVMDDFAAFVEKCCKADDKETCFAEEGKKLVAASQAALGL

For the compound `OC(Cn1cncn1)(Cn1cncn1)c1ccc(Cl)cc1Cl`, the result on Albumin [1] was Active.

As to `OC(Cn1cncn1)(Cn1cncn1)c1ccc(F)cc1F` [FLUCONAZOLE], the Ratio at Albumin [2] is listed as 1.11; at Albumin [3], 0.905; at Albumin [4], 0.961; at Albumin [5], 0.868; on Albumin [6], 0.945; on Albumin [7] it was 0.866. Also, the Ratio on Albumin [8] is listed as 0.741; on Albumin [9], 1.081; at Albumin [10] it was 0.857; on Albumin [11], 0.956. Further, the outcome on Albumin [1] was Active.
